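48-hour exposure; five concentrations; linearly interpolated endpoints. TGI is the concentration that stops growth completely.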
Tests used:
Assay in all cases: inhibition of tumour cell growth, NCI panel, 48 h
[1] = system: 786-0 renal
[2] = system: A498 renal
[3] = system: A549 NSCLC
[4] = system: ACHN renal
[5] = system: BT-549 breast
[6] = system: CAKI-1 renal
[7] = system: CCRF-CEM leukemia
[8] = system: COLO 205 colon
[9] = system: DU-145 prostate
[10] = system: HCC-2998 colon
[11] = system: HCT-116 colon
[12] = system: HCT-15 colon
[13] = system: HL-60(TB) leukemia
[14] = system: HOP-92 NSCLC
[15] = system: HS 578T breast
[16] = system: HT29 colon
[17] = system: IGROV1 ovarian
[18] = system: K-562 leukemia
[19] = system: KM12 colon
[20] = system: LOX IMVI melanoma
[21] = system: M14 melanoma
[22] = system: MALME-3M melanoma
[23] = system: MCF7 breast
[24] = system: MDA-MB-231 breast
[25] = system: MDA-N
[26] = system: MOLT-4 leukemia
[27] = system: NCI-H226 lung
[28] = system: NCI-H23 lung
[29] = system: NCI-H460 lung
[30] = system: NCI-H522 lung
[31] = system: NCI/ADR-RES ovarian
[32] = system: OVCAR-3 ovarian
[33] = system: OVCAR-4 ovarian
[34] = system: OVCAR-5 ovarian
[35] = system: PC-3 prostate
[36] = system: RPMI-8226 leukemia
[37] = system: RXF 393 renal
[38] = system: SF-268 CNS
[39] = system: SF-539 CNS
[40] = system: SK-MEL-2 melanoma
[41] = system: SK-MEL-28 melanoma
[42] = system: SK-MEL-5 melanoma
[43] = system: SK-OV-3 ovarian
[44] = system: SNB-19 CNS
[45] = system: SNB-75 CNS
[46] = system: SR leukemia
[47] = system: SW-620 colon
[48] = system: T-47D breast
[49] = system: TK-10 renal
[50] = system: U251 CNS
[51] = system: UACC-257 melanoma
[52] = system: UACC-62 melanoma
[53] = system: UO-31 renal

O=c1cc(NNc2cccc(Cl)c2)[nH]c(=O)[nH]1
TGI [1]: 31 µM | TGI [2]: > 100 µM | TGI [3]: > 100 µM | TGI [4]: > 100 µM | TGI [5]: > 100 µM | TGI [6]: 36.9 µM | TGI [7]: 68.8 µM | TGI [8]: > 100 µM | TGI [9]: > 100 µM | TGI [10]: > 100 µM | TGI [11]: 31.9 µM | TGI [12]: 31.4 µM | TGI [13]: 43.9 µM | TGI [14]: 35.5 µM | TGI [15]: > 100 µM | TGI [16]: > 100 µM | TGI [17]: > 100 µM | TGI [18]: > 100 µM | TGI [19]: > 100 µM | TGI [20]: 29.6 µM | TGI [21]: 37.7 µM | TGI [22]: 30.6 µM | TGI [23]: 17.3 µM | TGI [24]: 32.1 µM | TGI [25]: > 100 µM | TGI [26]: 60.1 µM | TGI [27]: > 100 µM | TGI [28]: > 100 µM | TGI [29]: > 100 µM | TGI [30]: 34.4 µM | TGI [31]: > 100 µM | TGI [32]: 31.2 µM | TGI [33]: > 100 µM | TGI [34]: > 100 µM | TGI [35]: > 100 µM | TGI [36]: 56.1 µM | TGI [37]: > 100 µM | TGI [38]: > 100 µM | TGI [39]: > 100 µM | TGI [40]: > 100 µM | TGI [41]: > 100 µM | TGI [42]: > 100 µM | TGI [43]: > 100 µM | TGI [44]: > 100 µM | TGI [45]: > 100 µM | TGI [46]: > 100 µM | TGI [47]: 33 µM | TGI [48]: > 100 µM | TGI [49]: 36.2 µM | TGI [50]: > 100 µM | TGI [51]: > 100 µM | TGI [52]: > 100 µM | TGI [53]: > 100 µM

From PubChem BioAssay (NCI)
